The values that follow come from patent US8632914B2, “Triazolium and imidazolium salts and uses thereof” (University Health Network, priority 2008, dated 2014).

Where two headings read alike, the source gives them in different places.

One data set relates to P. falciparum. Kind of data set: Anti-Plasmodium activity: viability of P. falciparum cultures (pLDH enzyme assay). The class given is cell-based. As to conditions: read-out: IC50 (μM) P. falciparum. As for the experimental part: P. falciparum cultures were grown in O+ blood obtained by venipuncture of volunteers. Cultures of the laboratory line ItG were maintained by the method of Trager and Jensen (Trager, W.; Jensen, J. Science 1976, 193, 673) using RPM, 1640 supplemented with 10% human serum (a kind gift obtained under ethical consent from the Chemo Day Care department of the Princess Margaret Hospital, Toronto, Canada) and 50 μM hypoxanthine (RPMI-A). The effects of the test compounds on the viability of P. falciparum cultures were determined using a Lactate Dehydrogenase (LDH) enzyme assay specific to the enzyme found in Plasmodium falciparum (pLDH) (Prudhomme, J. G.; Sherman, I. W. J Immunol Methods 1999, 229(1-2), 169; Makler, M. T.; Ries, J. M.; Williams, J. A.; Bancroft, J. E.; Piper, R. C.; Gibbins, B. L.; Hinrichs, D. J. Am J Trop Med Hyg 1993, 48(6), 739). Briefly, compounds to be tested were dissolved in DMSO afford a solution having a concentration of 10 mg/mL. Two-fold serial dilutions were then produced in 50 μL of RPMI-A in a 96 well plate and then 50 μL of parasite culture (2% hematocrit, 2% parasitemia) were added to each well and the plates were then incubated at 37° C. in 95% N2, 3% CO2, and 2% O2 for 72 hr. The contents of the wells were then re-suspended using a multi-channel pipettor and a 15 μL sample was removed from each well and was added to 100 μL of pLDH enzyme assay mixture (Prudhomme, J. G.; Sherman, I. W. J Immunol Methods 1999, 229(1-2), 169). After 1 hr the absorbance of the wells at 650 nm was determined using a ThermoMax microplate reader (Molecular Devices, Sunnyvale, Calif.). The IC50 values of individual compounds were determined using a non-linear regression analysis of the data^19 using the computer program SigmaPlot (Jandel Scientific) and are reported in Table 1. The IC50 values represent the mean±standard error calculated from four independent determinations. To verify if the poor viability of the cultures was related to inhibited merozoite invasion, samples were taken from treated wells and the presence of extracellular merozoites was confirmed by microscopy.

The test system of another data set is CHO cells. The experiment in a line: Viability of CHO cells (MTT). Type of data set: cell-based. As to conditions: Cricetulus griseus, read-out: IC50 (μM) CHO cells. The procedure: CHO cells (ATCC, Manassas, Va.) were grown in RPMI-1640 supplemented with 10% fetal calf serum (Sigma, St. Louis, Mo.), 25 mM HEPES and gentimicin (RPMI-10). Cells were seeded in 96 well plates and grown to 50% confluency in 100 μL of RPMI-10 per well prior to the addition of either DMSO alone, or a 10 mg/mL solution of a test compound of the disclosure in DMSO. Compound gradients were prepared by adding 90 μL of RPMI-10 mixed with 10 μL of compound solution to the first well in the series, mixing, transferring 100 μL to the next well, and repeating until the next-to-last well was reached. After 48 hrs, the viability of the cells was determined by discarding the media in the wells and adding 100 μL of 10 mg/mL of 3-[4,5-dimethylthiazol-2-yl]-2,5-diphenyltetrazolium bromide (MTT, Sigma, St. Louis, Mo.) in RPMI-10, incubating the plates for a further hour, and then removing the media and adding 100 μL of DMSO and reading the absorbance at 650 nm (Campling, B. G.; Pym, J.; Galbraith, P. R.; Cole, S. P. Leuk Res 1988, 12(10), 823). The IC50 values of individual compounds were determined using a non-linear regression analysis of the dose-response curve using the computer program SigmaPlot (Jandel Scientific) and are reported in Table 1.

The mark [1] stands for this setting: strain line ItG, 72 hr incubation, pLDH assay, mean of four determinations ± standard error.
[2] abbreviates: CHO cells, 48 hrs, MTT, mean of four determinations ± standard error.

`O=[N+]([O-])c1ccc(Cn2cc[n+](Cc3ccc([N+](=O)[O-])cc3)c2)cc1` [QT85, 1,3-Bis-(4-nitrobenzyl)imidazolium bromide]: the IC50 (usually the point on the concentration scale where inhibition reaches its midpoint) was determined as 9 ± 2 µM in the data set with P. falciparum (setting [1]) and 227 ± 7 µM with CHO cells (setting [2]). As for `Ic1ccc(Cn2cc[n+](Cc3ccc(I)cc3)c2)cc1` [QT78, 1,3-Bis-(4-iodobenzyl)imidazolium bromide], the values for the IC50 with P. falciparum (setting [1]) and in the data set on CHO cells (setting [2]) were 0.35 ± 0.06 µM and 33 ± 1 µM, respectively.

Turning to `Clc1cccc(Cn2cc[n+](Cc3cccc(Cl)c3)c2)c1` [QT74, 1,3-Bis-(3-chlorobenzyl)imidazolium bromide], the results for the IC50 in the data set on P. falciparum (setting [1]) and in the data set on CHO cells (setting [2]) were 3.3 ± 0.4 µM and 334.2 ± 0.4 µM, respectively. For `O=C(Cn1cc[n+](CC(=O)c2ccc(Cl)cc2)c1)c1ccc(Cl)cc1` [QT91, 1,3-Bis-[2-oxo-2-(4-chlorophenyl)ethyl]imidazolium bromide] the same measures were 2.6 ± 0.1 µM and 53 ± 2 µM. On the same counts, the results for `C[n+]1ccn(CCCOc2ccc(OCCCn3cc[n+](C)c3)cc2)c1` [QT123, 1,4-Bis[3-(3-methylimidazolium-1-yl)propoxy]benzene diiodide] are 0.045 ± 0.004 µM and 113 ± 12 µM. For `c1ccc2cc(Cn3cc[n+](Cc4ccc5ccccc5c4)c3)ccc2c1` [QT81, 1,3-Bis-(naphthalen-2-yl-methyl)imidazolium bromide] the same measures were 0.9 ± 0.4 µM and 27 ± 1 µM. Take `Fc1ccc(Cn2cc[n+](Cc3ccc(F)cc3)c2)cc1` [QT92, 1,3-Bis-(4-fluorobenzyl)imidazolium bromide]: the 50% inhibitory concentration (IC50) in the data set on P. falciparum (setting [1]) was determined as 17 ± 3 µM; in the data set with CHO cells (setting [2]), 56 ± 4 µM. With `Clc1ccc(Cn2cc[n+](Cc3ccc(Cl)cc3)c2)cc1` [QT80, 1,3-Bis-(4-chlorobenzyl)imidazolium chloride], the 50% inhibitory concentration (IC50) amounted to 9 ± 2 µM with P. falciparum (72 h) and 105 ± 1 µM with CHO cells (CHO, 48 h).

In the case of `O=[N+]([O-])c1ccc(C[n+]2ccn(-c3ccc(-c4ccc(-n5cc[n+](Cc6ccc([N+](=O)[O-])cc6)c5)cc4)cc3)c2)cc1` [QT103, 4,4′-Bis-[3-(4-nitrobenzyl)-1H-imidazolium-1-yl]biphenyl dibromide], the IC50 with P. falciparum (setting [1]) is 0.026 ± 0.003 µM; in the data set with CHO cells (setting [2]), 14 ± 2 µM. On the same counts, the results for `C[n+]1ccn(CCCCCCCCCCCCCCCn2cc[n+](C)c2)c1` [QT101, 1,15-Bis-(3-methylimidazolium-1-yl)pentadecane diiodide] are 0.002 ± 0.001 µM and 1.2 ± 0.2 µM.

Consider `c1ccc(Cn2cc[n+](Cc3ccccc3)c2)cc1` [QT68, 1,3-Dibenzylimidazolium bromide], for which the figures for the IC50 in the data set on P. falciparum (setting [1]) and in the data set on CHO cells (setting [2]) were 16 ± 1 µM and 191 ± 3 µM, respectively.

`Brc1ccc(C[n+]2ccn(Cc3ccccc3)c2)cc1` [QT75, 1-Benzyl-3-(4-bromobenzyl)imidazolium bromide]: the results for the IC50 with P. falciparum (setting [1]) and with CHO cells (setting [2]) were 2.9 ± 0.9 µM and 484.5 ± 0.9 µM, respectively. Regarding `Cl.Cl.c1cn(CCCCCCCCCCn2ccnc2)cn1`, the melting point (as a rule, the temperature, or range, at which the solid turns liquid) was 143 to 144 °C. For `c1cn(CCCCCCCCCCCCCCCCCCCCn2ccnc2)cn1` [QT-115, 1,20-Bis-(1H-imidazol-1-yl)eicosane], the melting point lay within 58 to 59 °C. In the case of `Cn1cc[n+](C)c1` [QT70, 1,3-Dimethylimidazolium iodide], the IC50 with P. falciparum (setting [1]) is 543 ± 66 µM; in the data set with CHO cells (setting [2]), 894 ± 19 µM. Turning to `Cl.Cl.c1cn(CCCCCCCCCCCCCCCn2ccnc2)cn1`, the melting point lay within 98 to 99 °C. Consider `C[n+]1ccn(CCCCCCCCCCCn2cc[n+](C)c2)c1` [QT118, 1,11-Bis-(3-methylimidazolium-1-yl)undecane diiodide], for which the IC50 in the data set with P. falciparum (setting [1]) is 0.0061 ± 0.0006 µM; in the data set with CHO cells (setting [2]), 42 ± 3 µM. On the same counts, the results for `C[n+]1ccn(-c2ccc(-n3cc[n+](C)c3)cc2)c1` [QT114, 1,4-Bis-(3-methylimidazolium-1-yl)benzene diiodide] are 11.2 ± 0.5 µM and 317 ± 64 µM. Regarding `Cl.Cl.c1cn(CCCCCCn2ccnc2)cn1`, the melting point is 220 to 221 °C.

Consider `C[n+]1ccn(Cc2ccc(-c3ccc(Cn4cc[n+](C)c4)cc3)cc2)c1` [QT113, 4,4′-Bis-(3-methylimidazolium-1-yl-methyl)biphenyl diiodide], for which the IC50 in the data set with P. falciparum (setting [1]) came out at 0.12 ± 0.04 µM; in the data set with CHO cells (setting [2]), 125 ± 13 µM.

For the compound `Brc1ccccc1Cn1cc[n+](Cc2ccccc2Br)c1` [QT82, 1,3-Bis-(2-bromobenzyl)imidazolium bromide], the half-inhibitory concentration (IC50) amounted to 1.4 ± 0.6 µM with P. falciparum (setting [1]) and 125 ± 10 µM in the data set with CHO cells (setting [2]).

Take `Cn1c[n+](C)c(-c2ccccc2)c1-c1ccccc1` [QT104, 1,3-Dimethyl-4,5-diphenyl-1H-imidazolium iodide]: the IC50 in the data set on P. falciparum (setting [1]) worked out at 3.1 ± 0.4 µM; in the data set with CHO cells (setting [2]), 385 ± 42 µM. On the same counts, the results for `c1ccc(Cn2c[n+](Cc3ccccc3)c(-c3ccccc3)c2-c2ccccc2)cc1` [QT105, 1,3-dibenzyl-4,5-diphenyl-1H-imidazolium bromide] are 1.4 ± 0.1 µM and 21 ± 2 µM. On the same counts, the results for `C[n+]1ccn(CCCCCCCCCCCCCCn2cc[n+](C)c2)c1` [QT107, 1,14-Bis-(3-methylimidazolium-1-yl)tetradecane diiodide] are 0.0032 ± 0.0002 µM and 11 ± 2 µM. On the same counts, the results for `O=C(Cn1cc[n+](CC(=O)c2ccc(Cc3ccccc3)cc2)c1)c1ccc(Cc2ccccc2)cc1` [QT97, 1,3-Bis-[2-oxo-2-(4-benzylphenyl)ethyl]imidazolium bromide] are 0.5 ± 0.1 µM and 4.3 ± 0.3 µM. For the compound `Brc1cccc(Cn2cc[n+](Cc3cccc(Br)c3)c2)c1` [QT83, 1,3-Bis-(3-bromobenzyl)imidazolium bromide], the IC50 with P. falciparum (setting [1]) is 1.05 ± 0.06 µM; in the data set on CHO cells (setting [2]), 132 ± 22 µM. For `C[n+]1ccn(CCCCn2cc[n+](C)c2)c1` [QT86, 1,4-Bis-(3-methylimidazolium-1-yl)butane diiodide] the same measures were 67 ± 22 µM and 122 ± 3 µM. For the compound `C[n+]1ccn(CCCCCCCCCCn2cc[n+](C)c2)c1` [QT88, 1,10-Bis-(3-methylimidazolium-1-yl)decane diiodide], the IC50 with P. falciparum (setting [1]) stood at 0.082 ± 0.009 µM; with CHO cells (setting [2]), 57 ± 5 µM. Consider `COc1ccc(Cn2cc[n+](Cc3ccc(OC)cc3)c2)cc1` [QT79, 1,3-Bis-(4-methoxybenzyl)imidazolium chloride], for which the IC50 stood at 5 ± 1 µM in the data set with P. falciparum (72 h) and 30.6 ± 0.7 µM in the data set on CHO cells (CHO, 48 h).

Turning to `C[n+]1ccn(CCCCCCCCCCCCn2cc[n+](C)c2)c1` [QT89, 1,12-Bis-(3-methylimidazolium-1-yl)dodecane diiodide], the IC50 in the data set on P. falciparum (setting [1]) was 0.009 ± 0.001 µM; in the data set on CHO cells (setting [2]), 26 ± 5 µM.

As to `Clc1ccccc1Cn1cc[n+](Cc2ccccc2Cl)c1` [QT90, 1,3-Bis-(2-chlorobenzyl)imidazolium bromide], the IC50 in the data set with P. falciparum (setting [1]) came to 2 ± 0.2 µM; in the data set with CHO cells (setting [2]) it was 110 ± 23 µM. For `Brc1ccc(Cn2cc[n+](Cc3ccc4ccccc4c3)c2)cc1` [QT95, 1-(4-Bromobenzyl)-3-(naphthalen-2-ylmethyl)imidazolium bromide] the same measures were 0.73 ± 0.03 µM and 27 ± 5 µM. On the same counts, the results for `C[n+]1ccn(CCCCCCCCn2cc[n+](C)c2)c1` [QT71, 1,8-Bis-(3-methylimidazolium-1-yl)octane diiodide] are 4.7 ± 0.9 µM and 452 ± 49 µM. Take `Cl.Cl.c1cn(CCCCCCCCCCCCCCn2ccnc2)cn1`: the melting point fell in the range of 142 to 143 °C. Consider `CCCn1cc[n+](C)c1` [QT73, 3-Methyl-1-propylimidazolium bromide], for which the IC50 is 230 ± 83 µM in the data set with P. falciparum (setting [1]) and 998 ± 83 µM in the data set on CHO cells (setting [2]). For `C[n+]1cn(-c2ccc(-c3ccc(-n4c[n+](C)c5ccccc54)cc3)cc2)c2ccccc21` [QT110, 4,4′-Bis-(3-methylbenzimidazolium-1-yl)biphenyl diiodide] the same measures were 0.07 ± 0.01 µM and 98 ± 24 µM.
